From patent US20230271947A1, “SALT AND CRYSTAL FORM OF KETOHEXOKINASE INHIBITOR AND USE THEREOF” (SHANDONG XUANZHU PHARMA CO., LTD., priority 2020, published 2023) come the findings set out here.

This assay has as its system D-Fructose-induced fructose-1-phosphate in HepG2 cells. As to the kind of experiment: In vitro cell inhibitory activity test: D-Fructose-induced fructose-1-phosphate in HepG2 cells (LC-MS). The format is cell-based. As to conditions: D-Fructose 3 h, read-out: EC50 (nM), inhibition of D-Fructose-induced fructose-1-phosphate. As for the experimental part:
1) HepG2 cells in logarithmic growth phase were collected and counted by using a […]. Cell viability was detected by trypan blue exclusion method to ensure that the cell viability was above 90%.
2) A concentration of the HepG2 cells was adjusted, and 81 µL of FBS-free basal medium (starvation treated) cell suspension was added to each 96-well plate with a testing well cell inoculation quantity of 5 × 10^4.
3) The HepG2 cells in the 96-well plates were cultured overnight at 37° C., 5% CO2, and 95% humidity.
1) Before dosing, 9 µL of FBS was added into testing wells of the 96-well plate, and the starvation treatment was stopped.
2) A 10-fold compound solution was prepared, with the highest concentration of 100 µM, 8 concentrations and 3-fold gradient dilution. 10 µL of drug solution was added to each well of the 96-well plate inoculated with the cells, and three repeated wells were set for each drug concentration. 10 µL of 1% DMSO solution was added to the solvent control group, and three repeated wells were set.
3) The cells in the 96-well plates added with the drug were incubated at 37° C., 5% CO2, and 95% humidity for 30 min.
4) A 11-fold D-Fructose solution was prepared, with a concentration of 220 mM. […]
Data were analyzed by GraphPad Prism 5.0 software, a dose-effect curve was obtained by using nonlinear S-curve regression, and the EC50 value was calculated.

The structures appear in SMILES notation.

On to `C[C@H]1CCN1c1nc(N2C[C@@H]3[C@@H](CC(=O)O)[C@@H]3C2)cc(C(F)(F)F)n1` [PF-06835919], for which the EC50 (as a rule, the midpoint of the concentration-response curve) worked out at 169 nM.
